In data set [1] the target is T1, HCK (Homo sapiens, UniProt P08631).
T1 construct: purchased Reaction Biology Corp
Briefly: P32 radioactive kinase assay (Reaction Biology Corp), HCK activity inhibition. The format is biochemical. The conditions noted are these: for remaining activity at 1 µM: 1 μM compound, read-out: % Enzyme Activity (relative to DMSO controls) HCK (1 μM); for remaining activity at 50 µM: 50 μM compound, read-out: % Enzyme Activity (relative to DMSO controls) HCK (50 μM). The method, then:
HCK activity inhibition efficiency for the inhibitors. Inhibiting efficiency was performed in Reaction Biology with Corp P32 radioactive kinase assay, comparing the compounds of the invention with dasatinib for HCK, Bcr-Abl and other binding kinases identified in reference. Most of the HCK inhibitors of the invention tested have IC50 of HCK activity at about 50 uM concentrations.
HCK inhibiting efficiency was performed in Reaction Biology with Corp P32 radioactive kinase assay. Briefly, HCK kinase was delivered into the substrate solution and gently mixed, then compounds in DMSO were added into the kinase reaction mixture by Acoustic technology (Echo550; Nano liter range), and incubated for 20 minutes at room temperature. 33P-ATP was delivered into the reaction mixture to initiate the reaction. The kinase reaction was incubated for 2 hours at room temperature. Reactions were spotted onto P81 ion exchange paper, and detected kinase activity was measured by filter-binding method.

Data set [2] deals with HK2 cells. Description: Anti-fibrosis effect: mRNA levels of fibrosis markers by RT-PCR in HK2 cells. The format is cell-based. As to conditions: for mRNA levels of fibrosis markers: FIG. 3A and FIG. 3B. How it is done:
Anti-fibrosis effect was investigated by fibrosis markers in mRNA level. […] The mRNA levels of Veminten, FN1 and A-Sma were not affected. HK2 cells were treated with HCK inhibitor Examples 4, 7, and 8 at 10 uM and 20 uM overnight and then stimulated with TGF-beta for 8 hours. mRNA-levels of profibrotic markers by RT-PCR (normalized to GAPDH) from mRNA isolated in the cells. Values are mean±SEM; *P=0.05, […], ***P<0.001 between means; one-way ANOVA with Bonferroni multiple comparison test (FIG. 2B). Finally, it was shown that Examples 7, 8, and 13 reduced the mRNA levels of fibrosis markers (FIG. 3A and FIG. 3B).

In data set [3] the test system is HK2 cells. Description: CellTiter 96 AQueous One Solution Cell Proliferation Assay (MTS) in HK2 cells. Type of data set: cell-based. As to conditions: Homo sapiens, HK-2, 24 hours treatment, MTS (FIG. 1), read-out: concentration that inhibits 50% of HK2 cell proliferation. An excerpt: HCK inhibitors reduce cell proliferation. Excessive HCK activation is associated with several types of leukemia and enhances cell proliferation and survival by physical association with oncogenic fusion proteins, and with functional interactions with receptor tyrosine kinases. Elevated HCK activity is also observed in many solid malignancies, including breast and colon cancer, and correlates with decreased patient survival rates. HCK enhances the secretion of growth factors and pro-inflammatory cytokines from myeloid cells and promotes macrophage polarization towards a wound healing and tumor-promoting alternatively activated phenotype. Inhibition of HCK activity, therefore, should inhibit cancerous cell's proliferation. Compounds of the invention were measured for inhibition of cell proliferation with CellTiter 96® AQueous One Solution Cell Proliferation Assay (MTS) from Promega in HK2 cells. The compounds of the invention were diluted to serial concentrations. HK2 cells were cultured in 10% FBS and 1% P/S. The cells were treated with the compounds of the invention for 24 hours and then 20 μl/well of CellTiter 96® AQueous One Solution Reagent was added. Values were normalized to the percentages relative to DMSO controls. Values shown are mean±SEM.

Data set [4] relates to SMAD. Briefly: SMAD binding activity in HK2 cells. The format is cell-based. An excerpt:
Inhibition of HCK affects SMAD binding activity. Transforming growth factor-β(TGF-β) is the primary factor that drives fibrosis in most, if not all, forms of chronic kidney disease (CKD). TGF-β1 can induce renal fibrosis via activation of both canonical (Smad-based) and non-canonical (non-Smad-based) signalling pathways, which result in activation of myofibroblasts, excessive production of extracellular matrix (ECM) and inhibition of ECM degradation. The role of Smad proteins in the regulation of fibrosis is complex, with competing profibrotic and antifibrotic actions (including in the regulation of mesenchymal transitioning), and with complex interplay between TGF-β/Smads and other signalling pathways.

The nature of data set [5]: LDH cytotoxicity assay. Type of data set: cell-based. As to conditions: different dosages, up to very high dose of 50 uM. The method, then:
LDH cytotoxicity assay for HCK inhibitors cytotoxicity. Toxicity refers to how poisonous or harmful a substance can be. In the context of pharmacology, drug toxicity occurs when a person has accumulated too much of a drug in his bloodstream, leading to adverse effects on the body. Drug toxicity may occur when the dose given is too high or the liver or kidneys are unable to remove the drug from the bloodstream, allowing it to accumulate in the body. Drug toxicity was measured with LDH cytotoxicity assay with different dosages of compounds of the invention.

The mark [6] stands for this setting: HK2 cells treated with 5, 10, 20 uM (FIG. 2A).
Setting [7] is: second of two replicate columns.

“And” between values parts separate entries of the source, which are not always exact repeats. Equal entries are not always repeated. Where two headings read alike, the source gives them in different places.

T1 sequence (P08631 whole entry): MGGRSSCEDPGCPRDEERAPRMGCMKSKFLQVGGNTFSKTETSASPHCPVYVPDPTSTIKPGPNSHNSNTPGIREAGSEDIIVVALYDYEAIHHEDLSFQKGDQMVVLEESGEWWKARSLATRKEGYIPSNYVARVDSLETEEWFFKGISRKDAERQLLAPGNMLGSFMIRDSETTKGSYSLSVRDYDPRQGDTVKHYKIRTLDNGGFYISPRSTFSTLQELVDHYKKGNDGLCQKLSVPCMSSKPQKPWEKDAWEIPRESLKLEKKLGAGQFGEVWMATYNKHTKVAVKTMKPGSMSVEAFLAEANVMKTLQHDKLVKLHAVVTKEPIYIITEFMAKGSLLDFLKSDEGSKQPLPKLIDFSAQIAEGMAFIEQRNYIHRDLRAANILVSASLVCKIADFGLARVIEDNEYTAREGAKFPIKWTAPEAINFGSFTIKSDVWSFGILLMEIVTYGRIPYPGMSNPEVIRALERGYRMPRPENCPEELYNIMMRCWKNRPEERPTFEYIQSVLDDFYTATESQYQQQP

As to `COc1cc(-c2nnc3n2N=C(c2ccc(Br)cc2)CS3)cc(OC)c1OC` [Example 4], in data set [1], the IC50 was < 50 µM and 30 µM. Further, in data set [2] (setting [6]), the “mRNA levels of Veminten, FN1 and A-Sma” value was “not affected”; the “mRNA levels of fibrosis markers collagen1, Snail, Mmp2 and Slug(Snail2)” value is on record as “affected”.
As for `CCOC(=O)c1cnc(NC(=O)c2cc3cc(Cl)ccc3oc2=O)s1` [Example 7], the IC50 is < 50 µM in data set [1] and 10 µM in data set [3]. In addition, the remaining activity at 1 µM in data set [1] (first of two replicate columns) is 104%; in data set [1] (setting [7]), 114%. In addition, the remaining activity at 50 µM came out at 42.8% in data set [1] (first of two replicate columns) and 45% in data set [1] (setting [7]). Further, in data set [2], the “mRNA levels of fibrosis markers” value is “reduced”.
Regarding `CCOC(=O)c1cnc(NC(=O)c2cc3cc(Cl)ccc3[nH]c2=O)s1` [Example 8], the “SMAD activity in HK2 cells” value in data set [4] is listed as “reduce SMAD activity”. For the same molecule, the IC50 is < 50 µM in data set [1] and 0.5 µM in data set [3]. The remaining activity at 1 µM in data set [1] (first of two replicate columns) turned out to be 108%; in data set [1] (setting [7]) it was 116%. The results for the remaining activity at 50 µM in data set [1] (first of two replicate columns) and in data set [1] (setting [7]) were 41.2% and 43.9%, respectively. In data set [2], the “mRNA levels of fibrosis markers” value is “reduced”.
On to `CCOC(=O)c1cnc(NC(=O)c2ccc(B3OC(C)(C)C(C)(C)O3)cc2)s1` [Example 9], for which, in data set [1] (first of two replicate columns), the remaining activity at 1 µM is 110% and the remaining activity at 50 µM was 95%. Further, in data set [1] (setting [7]), the remaining activity at 1 µM stood at 115% and the remaining activity at 50 µM was 86.3%.
Turning to `CCOC(=O)c1cnc(NC(C#N)c2ccc(B3OC(C)(C)C(C)(C)O3)cc2)s1` (centres unmarked) [Example 10], the remaining activity at 1 µM in data set [1] (first of two replicate columns) came out at 104%; in data set [1] (setting [7]) it was 99.4%. Moreover, the remaining activity at 50 µM in data set [1] (first of two replicate columns) was 89.1%; in data set [1] (setting [7]) it was 96.5%.
For `CCOC(=O)c1cnc(NC(C#N)c2ccc(B(O)O)cc2)s1` (centres unmarked) [Example 11] the same measures were 93.5%, 103%, 74.5% and 68.5%.
Consider `CCOC(=O)c1cnc(NC(C#N)C2=Cc3cc(Cl)cc(Cl)c3OC2c2ccccc2)s1` (centres unmarked) [Example 12], for which the “cytotoxicity (LDH assay)” value in data set [5] was “some cytotoxicity at very high dose of 50 uM”. Further, in data set [4], the “SMAD activity in HK2 cells” value was “reduce SMAD activity”. In addition, the IC50 in data set [1] is < 50 µM; in data set [3], 10 µM. Besides, the remaining activity at 1 µM came to 108% in data set [1] (first of two replicate columns) and 113% in data set [1] (setting [7]). The results for the remaining activity at 50 µM in data set [1] (first of two replicate columns) and in data set [1] (setting [7]) were 75.9% and 79.5%, respectively.
In the case of `CCOC(=O)c1cnc(NC(C#N)c2cc(-c3ccccc3)on2)s1` (centres unmarked) [Example 13], the results for the IC50 in data set [1] and in data set [3] were < 50 µM and 10 µM, respectively. Also, the remaining activity at 1 µM in data set [1] (first of two replicate columns) was determined as 109%; in data set [1] (setting [7]), 113%. In addition, the remaining activity at 50 µM in data set [1] (first of two replicate columns) amounted to 68.4%; in data set [1] (setting [7]) it was 65.5%. The “mRNA levels of fibrosis markers” value in data set [2] is on record as “reduced”.
For the molecule `CCOC(=O)c1cnc(NC(=O)/C=C/c2ccccc2)s1` [Example 14], in data set [1] (first of two replicate columns), the remaining activity at 1 µM was determined as 112% and the remaining activity at 50 µM worked out at 93.6%. For the same molecule, in data set [1] (setting [7]), the remaining activity at 1 µM was determined as 118% and the remaining activity at 50 µM was 94.2%.
With `CCOC(=O)c1cnc(NC(=O)C2=Cc3cc(Cl)cc(Cl)c3OC2c2ccccc2)s1` (centres unmarked) [Example 15], the “SMAD activity in HK2 cells” value in data set [4] was “reduce SMAD activity”. Besides, the results for the IC50 in data set [1] and in data set [3] were < 50 µM and 0.5 µM, respectively. Further, the remaining activity at 1 µM in data set [1] (first of two replicate columns) was determined as 86.6%; in data set [1] (setting [7]), 83.4%. For the same molecule, the remaining activity at 50 µM in data set [1] (first of two replicate columns) came to 6.63%; in data set [1] (setting [7]), 5.97%.
Regarding `CCOC(=O)c1cnc(NC(=O)c2cc(OC)c(OC)c(OC)c2)s1` [Example 16], in data set [1] (first of two replicate columns), the remaining activity at 1 µM came to 97.5% and the remaining activity at 50 µM turned out to be 89.8%. Also, in data set [1] (setting [7]), the remaining activity at 1 µM amounted to 94% and the remaining activity at 50 µM was 85%.
As to `CCOC(=O)c1cnc(NC(=O)c2cc(-c3ccccc3)on2)s1` [Example 17], the remaining activity at 1 µM in data set [1] (first of two replicate columns) came out at 114%; in data set [1] (setting [7]), 116%. The values for the remaining activity at 50 µM in data set [1] (first of two replicate columns) and in data set [1] (setting [7]) were 112% and 117%, respectively.
The corresponding values for `O=C(Nc1ncc(C(=O)O)s1)c1cc(-c2ccccc2)on1` [Example 18] are 107%, 95%, 106% and 113%.
For `COc1cc(C(=O)Nc2ncc(C(=O)O)s2)cc(OC)c1OC` [Example 19] the same measures were 99.2%, 100%, 94.1% and 90.7%.
For `CCOC(=O)c1cnc(NC(=O)c2cc(Cl)cc(Cl)c2)s1` [Example 20] the same measures were 102%, 110%, 101% and 97.8%.
`O=C(Nc1ncc(C(=O)O)s1)c1cc(Cl)cc(Cl)c1` [Example 21]: in data set [1] (first of two replicate columns), the remaining activity at 1 µM is 96.2% and the remaining activity at 50 µM amounted to 76.9%. Also, in data set [1] (setting [7]), the remaining activity at 1 µM came to 100% and the remaining activity at 50 µM was 77.7%.

(Values after patent US12378235B2, “HCK inhibitors for the treatment of fibrosis and cancer” (Icahn School of Medicine At Mount Sinai, priority 2019, dated 2025).)
